10 compounds from patent US11208387B2, “Macrocyclic broad spectrum antibiotics” (Genentech, Inc., priority 2019, dated 2021) can be followed below.

Common to all, as to assay: Serum MIC, broth micro-dilution
What all share (assay type): cell-based

The subject of assay [1] is Pseudomonas aeruginosa PA01. As to conditions: Pseudomonas aeruginosa, read-out: P. aeruginosa 01 Serum MIC. The procedure, abridged:
(§1)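 CLSI broth micro-dilution MIC run in 50% v/v cation-adjusted Mueller Hinton II broth plus 50% v/v mouse serum. Compounds were serially 2-fold diluted (10 concentrations) from a top concentration of 64, 4, 0.5 or 0.13 μg/mL; inoculum at final OD600 0.0005, incubated 35° C for 22 hours.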

In assay [2] the test system is Acinetobacter baumannii ATCC 17978. As to conditions: Acinetobacter baumannii. An outline of the steps:
as §1

The subject of assay [3] is Escherichia coli strain ATCC 25922. The note with it: Escherichia coli, read-out: E. coli 25922 Serum MIC. The procedure, abridged: as §1
Assay [4] has as its system Klebsiella pneumoniae ATCC 700603. The note with it: Klebsiella pneumoniae. The procedure, abridged: as §1
Where [5] appears, read: PA01, 50% v/v mouse serum in Mueller Hinton II cation adjusted Broth, 35° C., 22 hours, Table 4.
Setting [6] is: ATCC17978, 50% v/v mouse serum in Mueller Hinton II cation adjusted Broth, 35° C., 22 hours, Table 4, read-out: A. baumanii 17978 Serum MIC.
Where [7] appears, read: ATCC17978, 50% v/v mouse serum in Mueller Hinton II cation adjusted Broth, 35° C., 22 hours, Table 5, read-out: Acinetobacter baumanii 17978 Serum MIC.
Where [8] appears, read: ATCC25922, 50% v/v mouse serum in Mueller Hinton II cation adjusted Broth, 35° C., 22 hours, Table 4.
Where [9] appears, read: ATCC700603, 50% v/v mouse serum in Mueller Hinton II cation adjusted Broth, 35° C., 22 hours, Table 4, read-out: K pneumoniae 700603 Serum MIC.

In brackets after ≈: the same amount, converted by molar mass. Like-named read-outs stand apart in the source and are kept apart here.

Take `Cc1nc(-c2ccc(CC(C)(C)C)cc2)nc(N)c1C(=O)N[C@@H](CNS(N)(=O)=O)C(=O)N(C)[C@@H]1C(=O)N[C@@H](C)C(=O)N[C@H](C(=O)O)Cc2ccc(OC[C@H](O)CN)c(c2)-c2cc1cc(OC[C@H](O)CN)c2O` [Example 42, (8S,11S,14S)-14-[[(2S)-2-[[4-amino-2-[4-(2,2-dimethyl-propyl)phenyl]-6-methyl-pyrimidine-5-carbonyl]amino]-3-(sulfamoylamino)-propanoyl]-methyl-amino]-3,17-bis[(2R)-3-amino-2-hydroxy-propoxy]-18-hydroxy-11-methyl-10,13-dioxo-9,12-diazatri-cyclo[13.3.1.12,6]icosa-1(18),2(20),3,5,15(19), 16-hexaene-8-carboxylic acid]: the MIC was 4 µM (≈ 4.09 µg/mL) in assay [1] (setting [5]); 8 µM (≈ 8.18 µg/mL) in assay [2] (setting [6]); 8 µM (≈ 8.18 µg/mL) in assay [2] (setting [7]); 0.5 µM (≈ 0.511 µg/mL) in assay [3] (setting [8]); 0.75 µM (≈ 0.767 µg/mL) in assay [4] (setting [9]).

Take `Cc1cc(-c2ccc(C(C)(C)C)cc2F)nc(N)c1C(=O)N[C@@H](CNS(N)(=O)=O)C(=O)N(C)[C@@H]1C(=O)N[C@@H](C)C(=O)N[C@H](C(=O)O)Cc2ccc(OC[C@H](O)CN)c(c2)-c2cc1cc(OC[C@H](O)CN)c2O` [Example 35, (8S,11S,14S)-14-[[(2S)-2-[[2-amino-6-(4-tert-butyl-2-fluoro-phenyl)-4-methyl-pyridine-3-carbonyl]amino]-3-(sulfamoylamino)-propanoyl]-methyl-amino]-3,17-bis[(2R)-3-amino-2-hydroxy-propoxy]-18-hydroxy-11-methyl-10,13-dioxo-9,12-diazatricyclo-[13.3.1.12,6]icosa-1(18),2(20),3,5,15(19), 16-hexaene-8-carboxylic acid]: the MIC in assay [1] (setting [5]) stood at 8 µM (≈ 8.2 µg/mL); in assay [2] (setting [6]) it was 16 µM (≈ 16.4 µg/mL); in assay [2] (setting [7]) it was 16 µM (≈ 16.4 µg/mL); in assay [3] (setting [8]), 0.5 µM (≈ 0.513 µg/mL); in assay [4] (setting [9]), 0.5 µM (≈ 0.513 µg/mL).

In the case of `CCCCCOc1ccc(-c2nc(C)c(C(=O)N[C@@H](CCN)C(=O)N(C)[C@@H]3C(=O)N[C@@H](C)C(=O)N[C@H](C(=O)O)Cc4ccc(O)c(c4)-c4cc3ccc4OCCN)c(C)n2)cc1` (racemic) [Example 648], the MIC was over 128 µM in assay [1] (PA01, 50% v/v mouse serum, compounds of Table 1, Table 7); over 96 µM in assay [2] (ATCC17978, 50% v/v mouse serum, compounds of Table 1, Table 7, read-out: A. baumanii 17978 Serum MIC); 0.6 µM (≈ 0.512 µg/mL) in assay [3] (ATCC25922, 50% v/v mouse serum, compounds of Table 1, Table 7); 1.3 µM (≈ 1.11 µg/mL) in assay [4] (ATCC700603, 50% v/v mouse serum, compounds of Table 1, Table 7, read-out: K. pneumoniae 700603 Serum MIC).

Regarding `C[C@@H]1NC(=O)[C@@H](N(C)C(=O)[C@H](CNS(N)(=O)=O)NC(=O)c2c(N)cc(-c3ccc(C(C)(C)C)cc3)nc2Cl)c2cc(OC[C@H](O)CN)c(O)c(c2)-c2cc(ccc2OC[C@H](O)CN)C[C@@H](C(=O)O)NC1=O` [Example 37, (8S,11S,14S)-14-[[(2S)-2-[[4-amino-6-(4-tert-butylphenyl)-2-chloro-pyridine-3-carbonyl]amino]-3-(sulfamoylamino)-propanoyl]-methyl-amino]-3,17-bis[(2R)-3-amino-2-hydroxy-propoxy]-18-hydroxy-11-methyl-10,13-dioxo-9,12-diazatri-cyclo[13.3.1.12,6]icosa-1(18),2(20),3,5,15(19), 16-hexaene-8-carboxylic acid], the MIC in assay [1] (setting [5]) amounted to 4 µM (≈ 4.11 µg/mL); in assay [2] (setting [6]), 8 µM (≈ 8.22 µg/mL); in assay [2] (setting [7]), 8 µM (≈ 8.22 µg/mL); in assay [3] (setting [8]), 0.5 µM (≈ 0.514 µg/mL); in assay [4] (setting [9]), 0.5 µM (≈ 0.514 µg/mL).

Turning to `Cc1nc(-c2ccc(C(C)(C)C)c(F)c2)nc(N)c1C(=O)N[C@@H](CNS(N)(=O)=O)C(=O)N(C)[C@@H]1C(=O)N[C@@H](C)C(=O)N[C@H](C(=O)O)Cc2ccc(OC[C@H](O)CN)c(c2)-c2cc1cc(OC[C@H](O)CN)c2O` [Example 60, (8S,11S,14S)-14-[[(2S)-2-[[4-amino-2-(4-tert-butyl-3-fluoro-phenyl)-6-methyl-pyrimidine-5-carbonyl]amino]-3-(sulfamoylamino)-propanoyl]-methyl-amino]-3,17-bis[(2R)-3-amino-2-hydroxy-propoxy]-18-hydroxy-11-methyl-10,13-dioxo-9,12-diazatricyclo-[13.3.1.12,6]icosa-1(18),2(20),3,5,15(19), 16-hexaene-8-carboxylic acid], the MIC was 4 µM (≈ 4.1 µg/mL) in assay [1] (setting [5]); 12 µM (≈ 12.3 µg/mL) in assay [2] (setting [6]); 12 µM (≈ 12.3 µg/mL) in assay [2] (setting [7]); 0.5 µM (≈ 0.513 µg/mL) in assay [3] (setting [8]); 0.75 µM (≈ 0.77 µg/mL) in assay [4] (setting [9]).

For `C[C@@H]1NC(=O)[C@@H](N(C)C(=O)[C@H](CCN)NC(=O)c2cnn(-c3ccc(OC4CCCCC4)cc3)c(=O)c2)c2cc(OC[C@H](O)CN)c(O)c(c2)-c2cc(ccc2OC[C@H](O)CN)C[C@@H](C(=O)O)NC1=O` [Example 26, (8S,11S,14S)-18-hydroxy-11-methyl-14-[methyl-[(2S)-4-amino-2-[[1-[4-(cyclohexoxy)phenyl]-6-oxo-pyridazine-4-carbonyl]amino]-butanoyl]amino]-10,13-dioxo-3,17-bis[(2R)-3-amino-2-hydroxy-propoxy]-9,12-diazatricyclo-[13.3.1.12,6]icosa-1(18),2(20),3,5,15(19), 16-hexaene-8-carboxylic acid], the MIC worked out at 64 µM (≈ 62.2 µg/mL) in assay [1] (setting [5]); 24 µM (≈ 23.3 µg/mL) in assay [2] (setting [6]); 24 µM (≈ 23.3 µg/mL) in assay [2] (setting [7]); 1 µM (≈ 0.972 µg/mL) in assay [3] (setting [8]); 0.75 µM (≈ 0.729 µg/mL) in assay [4] (setting [9]).

On to `COc1c(OC[C@H](O)CN)cc2cc1-c1cc(ccc1OC[C@H](O)CN)C[C@@H](C(=O)O)NC(=O)[C@H](C)NC(=O)[C@H]2N(C)C(=O)[C@H](CCN)NC(=O)c1cnc(-c2ccc(C3(C)CC3)cc2)nc1C` [Example 74, (8S,11S,14S)-3,17-bis[(2R)-3-amino-2-hydroxy-propoxy]-14-[[(2S)-4-amino-2-[[4-methyl-2-[4-(1-methylcyclopropyl)-phenyl]pyrimidine-5-carbonyl]amino]-butanoyl]-methyl-amino]-18-methoxy-11-methyl-10,13-dioxo-9,12-diazatri-cyclo[13.3.1.12,6]icosa-1(18),2(20),3,5,15(19), 16-hexaene-8-carboxylic acid], for which the MIC in assay [1] (setting [5]) is 64 µM (≈ 60.2 µg/mL); in assay [2] (setting [6]), 32 µM (≈ 30.1 µg/mL); in assay [2] (setting [7]) it was 32 µM (≈ 30.1 µg/mL); in assay [3] (setting [8]), 0.5 µM (≈ 0.47 µg/mL); in assay [4] (setting [9]) it was 0.5 µM (≈ 0.47 µg/mL).

In the case of `Cc1nc(-c2ccc(C(C)(C)C)cc2)nc(N)c1C(=O)N[C@@H](CCNS(N)(=O)=O)C(=O)N(C)[C@@H]1C(=O)N[C@@H](C)C(=O)N[C@H](C(=O)O)Cc2ccc(OC[C@H](O)CN)c(c2)-c2cc1cc(OC[C@H](O)CN)c2O` [Example 76, (8S,11S,14S)-14-[[(2S)-2-[[4-amino-2-(4-tert-butylphenyl)-6-methyl-pyrimidine-5-carbonyl]amino]-4-(sulfamoylamino)-butanoyl]-methyl-amino]-3,17-bis[(2R)-3-amino-2-hydroxy-propoxy]-18-hydroxy-11-methyl-10,13-dioxo-9,12-diazatricyclo-[13.3.1.12,6]icosa-1(18),2(20),3,5,15(19), 16-hexaene-8-carboxylic acid], the MIC in assay [1] (setting [5]) was found to be 16 µM (≈ 16.4 µg/mL); in assay [2] (setting [6]), 24 µM (≈ 24.5 µg/mL); in assay [2] (setting [7]), 24 µM (≈ 24.5 µg/mL); in assay [3] (setting [8]) it was 2 µM (≈ 2.04 µg/mL); in assay [4] (setting [9]) it was 1.5 µM (≈ 1.53 µg/mL).

`Cc1nc(-c2ccc(OC(C)C)cc2)ncc1C(=O)N[C@@H](CNS(N)(=O)=O)C(=O)N(C)[C@@H]1C(=O)N[C@@H](C)C(=O)N[C@H](C(=O)O)Cc2ccc(OC[C@H](O)CN)c(c2)-c2cc1cc(OC[C@H](O)CN)c2O` [Example 14, (8S,11S,14S)-18-hydroxy-11-methyl-14-[methyl-[(2S)-2-[[2-(4-isopropoxy-phenyl)-4-methyl-pyrimidine-5-carbonyl]amino]-3-(sulfamoylamino)-propanoyl]amino]-10,13-dioxo-3,17-bis[(2R)-3-amino-2-hydroxy-propoxy]-9,12-diazatricyclo-[13.3.1.12,6]icosa-1(18),2(20),3,5,15(19), 16-hexaene-8-carboxylic acid]: the MIC in assay [1] (PA01, 22 h) was 48 µM (≈ 47.8 µg/mL); in assay [2] (ATCC17978, 22 h, read-out: A. baumanii 17978 Serum MIC) it was 32 µM (≈ 31.8 µg/mL); in assay [2] (ATCC17978, 22 h, read-out: Acinetobacter baumanii 17978 Serum MIC), 32 µM (≈ 31.8 µg/mL); in assay [3] (ATCC25922, 22 h), 1.5 µM (≈ 1.49 µg/mL); in assay [4] (ATCC700603, 22 h, read-out: K pneumoniae 700603 Serum MIC), 2 µM (≈ 1.99 µg/mL).

`C[C@@H]1NC(=O)[C@@H](N(C)C(=O)[C@H](CNS(N)(=O)=O)NC(=O)c2cnn(-c3ccc(OCCC(C)(C)C)cc3)c(=O)c2)c2cc(OC[C@H](O)CN)c(O)c(c2)-c2cc(ccc2OC[C@H](O)CN)C[C@@H](C(=O)O)NC1=O` [Example 4, (8S,11S,14S)-18-hydroxy-11-methyl-14-[methyl-[(2S)-2-[[1-[4-(3,3-dimethyl-butoxy)phenyl]-6-oxo-pyridazine-4-carbonyl]amino]-3-(sulfamoylamino)-propanoyl]amino]-10,13-dioxo-3,17-bis[(2R)-3-amino-2-hydroxy-propoxy]-9,12-diazatricyclo-[13.3.1.12,6]icosa-1(18),2(20),3,5,15(19), 16-hexaene-8-carboxylic acid]: the MIC was found to be 12 µM (≈ 12.5 µg/mL) in assay [1] (setting [5]); 24 µM (≈ 24.9 µg/mL) in assay [2] (setting [6]); 24 µM (≈ 24.9 µg/mL) in assay [2] (setting [7]); 1 µM (≈ 1.04 µg/mL) in assay [3] (setting [8]); 0.75 µM (≈ 0.779 µg/mL) in assay [4] (setting [9]).

A word on the MIC: it is the smallest concentration in the dilution series that meets the test's criterion for growth inhibition.
